# pEC50, pIC50: −log10 of the molar value. Read-outs that look alike come from different tables or passages of the source.
# Tests used:
# SUV420H1 enzyme = SUV420H1 enzyme (Homo sapiens, UniProt Q4FZB7); assay: TR-FRET SAH SUV420H1 enzyme inhibition assay; assay type: biochemical; details: Histone Peptide H4(8-30)me1 and SAM, TR-FRET detection of SAH, read-out: TR-FRET SAH_SUV420H1 IC50
# Method: Test compounds were dispensed by a Labcyte Echo in 384-well low volume assay plates with 3-fold serial dilutions from 50 μM to 0.00075 μM. 5 μL of SUV420H1 enzyme (Abbvie) at 90 nM was added to all wells except for the no enzyme control wells and incubated for 30 minutes at room temperature before 5 μL of Histone Peptide H4(8-30)me1 (Anaspec) at 5 μM and SAM at 4 μM was added to all wells. The plates were incubated in a humidified chamber overnight at room temp and then 10 μL of the detection reagent that contained RIPA buffer (50 mM Tris-HCl, pH 8.0, 150 mM sodium chloride, 1.0% Igepal CA-630 (NP-40), 0.5% sodium deoxycholate and 0.1% sodium dodecyl sulfate) (Sigma) with 2 nM of Terbium chelate anti S-adenosyl-L-homocysteine (SAH) (Abbvie) antibody and Oregon Green labeled SAH at 4 nM was added. The plates were further incubated for 4 hours at room temperature. The plates were read in a Perkin Elmer Envision using a TR-FRET protocol with Excitation set at 335 nm and Emission at 520 and 495 nm. To generate dose response curves the data is normalized to percent inhibition by setting the average of the plus and minus enzyme control wells to 0% and 100% inhibition respectively. The ICso values for the compounds are generated by fitting the normalized data with Accelrys Assay Explorer 3.3 to a sigmoidal curve model using […], Y=(100*x^n)/(K^n+x^n), where Y is the measured response, x is the compound concentration, n is the Hill Slope and K is the IC50 and the lower and higher asymptotes are constrained to 0 and 100 respectively.
# [1] = system: H4K20me3 in PC-3 cells (SUV420H1 cellular activity); assay: H4K20me3 Cellular PD Assay (high content microscopy); assay type: cell-based; details: treated for 72 hours, H4K20me3 immunofluorescence, read-out: H4K20me3 Inhibition EC50
# Method: A high content microscopy-based PD assay was used to analyze the decrease of H4K20me3 upon inhibition of SUV420H1 cellular activity. PC-3 cells were plated at 3,000 cells per well in black Collagen I coated 96-well plates (Perkin Elmer, #6005810) in RPMI supplemented with 10% heat inactivated FBS, 1% sodium pyruvate and 1% non-essential amino acids in a 37° C. tissue culture incubator. At 24 hours post seeding, cells were treated with the indicated compounds for 72 hours in an 8-point dose response using half log dilutions from […] and then fixed in 2% formaldhyde (Polysciences, Inc., #04018) for 10 minutes at room temperature. Cells were washed in PBS and permeablized in 0.1% Triton X-100 for 10 minutes at room temperature. After blocking in 1% BSA (Sigma, #A7030) in PBS for 1 hour at room temperature, a mouse monoclonal antibody directed toward H4K20me3 (Santa Cruz, #sc-134216) in antibody dilution buffer (0.3% BSA in PBS) was added for 16 hours at 4° C. Cells were then washed 3 times in PBS and an Alexa Fluor 555 conjugated goat anti-mouse (Life Technologies #A-21424) secondary antibody was added for 1 hour at room temperature. Hoechst 33342 diluted 1:10000 (Life Technologies #H3570) was also added during the secondary antibody incubation. Cells were washed 3 times in PBS and stored in PBS at 4° C. Fluorescent images were acquired within 24 hours on a Cell Insight (Thermo Fisher Scientific) using the Target Activation algorithm. Objects were identified via nuclear Hoescht staining, and changes in average mean intensity in the fluorescent signals of H4K20me3 were quantified using the HCS View software platform (Thermo Fisher Scientific).
# Sequence of SUV420H1 enzyme (Q4FZB7 whole entry): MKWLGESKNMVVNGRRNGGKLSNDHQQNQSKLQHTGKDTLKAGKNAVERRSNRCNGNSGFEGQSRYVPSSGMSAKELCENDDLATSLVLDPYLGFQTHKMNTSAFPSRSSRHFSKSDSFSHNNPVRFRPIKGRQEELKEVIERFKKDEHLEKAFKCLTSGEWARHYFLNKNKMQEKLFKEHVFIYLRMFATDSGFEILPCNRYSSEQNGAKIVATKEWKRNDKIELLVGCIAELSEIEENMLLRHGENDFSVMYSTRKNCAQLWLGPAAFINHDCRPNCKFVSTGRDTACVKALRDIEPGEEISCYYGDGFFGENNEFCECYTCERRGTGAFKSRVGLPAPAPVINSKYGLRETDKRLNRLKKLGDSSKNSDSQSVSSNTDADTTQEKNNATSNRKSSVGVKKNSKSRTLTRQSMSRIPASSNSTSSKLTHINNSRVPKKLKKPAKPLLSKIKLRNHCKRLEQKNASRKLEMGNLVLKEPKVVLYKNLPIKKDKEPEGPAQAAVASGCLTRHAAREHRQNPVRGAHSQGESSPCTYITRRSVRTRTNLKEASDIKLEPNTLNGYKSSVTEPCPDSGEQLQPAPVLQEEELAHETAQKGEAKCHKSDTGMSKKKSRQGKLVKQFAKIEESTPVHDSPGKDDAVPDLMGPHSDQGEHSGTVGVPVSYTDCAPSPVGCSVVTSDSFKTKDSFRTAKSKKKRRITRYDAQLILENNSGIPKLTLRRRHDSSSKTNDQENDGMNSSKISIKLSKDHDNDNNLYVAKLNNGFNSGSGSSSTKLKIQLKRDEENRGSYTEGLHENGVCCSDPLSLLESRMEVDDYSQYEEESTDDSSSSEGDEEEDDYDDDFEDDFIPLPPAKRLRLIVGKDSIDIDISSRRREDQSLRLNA
compound,measurement,setting,value
"O=C(Cn1cc(-c2nnc(NC3CCCC3)c3cc(Cl)c(Cl)cc23)cn1)NCCO [Example 56, 2-{4-[6,7-dichloro-4-(cyclopentylamino)phthalazin-1-yl]-1H-pyrazol-1-yl}-N-(2-hydroxyethyl)acetamide]",pIC50,SUV420H1 enzyme,6.78
same,pEC50,[1]; Homo sapiens,5.17
"CN1CCN(C(=O)Cn2cc(-c3nnc(NC4CCCC4)c4cc(Cl)c(Cl)cc34)cn2)CC1 [Example 61, 2-{4-[6,7-dichloro-4-(cyclopentylamino)phthalazin-1-yl]-1H-pyrazol-1-yl}-1-(4-methylpiperazin-1-yl)ethanone]",pIC50,SUV420H1 enzyme,6.72
same,pEC50,[1]; Homo sapiens,5.30
"Cn1ccc(-c2nnc(NC3CCCC3)c3cc(Cl)c(Cl)cc23)n1 [Example 4, 6,7-dichloro-N-cyclopentyl-4-(1-methyl-1H-pyrazol-3-yl)phthalazin-1-amine]",pIC50,SUV420H1 enzyme,7.03
same,pEC50,[1]; Homo sapiens,5.94
"CC(=O)N1CCN(C(=O)Cn2cc(-c3nnc(NC4CCCC4)c4cc(Cl)c(Cl)cc34)cn2)CC1 [Example 62, 1-(4-acetylpiperazin-1-yl)-2-{4-[6,7-dichloro-4-(cyclopentylamino)phthalazin-1-yl]-1H-pyrazol-1-yl}ethanone]",pIC50,SUV420H1 enzyme,6.48
same,pEC50,[1]; Homo sapiens,4.98
"Clc1cc2c(Cl)nnc(NC3CCCC3)c2cc1Cl [Example 1, 4,6,7-trichloro-N-cyclopentylphthalazin-1-amine]",pIC50,SUV420H1 enzyme,6.44
same,pEC50,[1]; Homo sapiens,4.94
"Clc1cc2c(NC3CCCC3)nnc(-c3ccnc(N4CCNCC4)c3)c2cc1Cl [Example 18, 6,7-dichloro-N-cyclopentyl-4-[2-(piperazin-1-yl)pyridin-4-yl]phthalazin-1-amine]",pIC50,SUV420H1 enzyme,6.28
same,pEC50,[1]; Homo sapiens,5.98
"Fc1ccc(-c2nnc(NC3CCCC3)c3cc(Cl)c(Cl)cc23)cn1 [Example 19, 6,7-dichloro-N-cyclopentyl-4-(6-fluoropyridin-3-yl)phthalazin-1-amine]",pIC50,SUV420H1 enzyme,6.79
same,pEC50,[1]; Homo sapiens,5.92
"1-{4-[6,7-dichloro-4-(cyclopentylamino)phthalazin-1-yl]pyridin-2-yl}pyrrolidin-3-ol [Example 36]",pIC50,SUV420H1 enzyme,6.76
same,pEC50,[1],5.78
"Clc1cc2c(NC3CCCC3)nnc(-c3ccncc3)c2cc1Cl [Example 6, 6,7-dichloro-N-cyclopentyl-4-(pyridin-4-yl)phthalazin-1-amine]",pIC50,SUV420H1 enzyme,7.41
same,pEC50,[1]; Homo sapiens,6.28
"Cn1cc(C(=O)N2CC=C(c3nnc(NC4CCCC4)c4cc(Cl)c(Cl)cc34)CC2)cn1 [Example 78, {4-[6,7-dichloro-4-(cyclopentylamino)phthalazin-1-yl]-3,6-dihydropyridin-1(2H)-yl}(1-methyl-1H-pyrazol-4-yl)methanone]",pEC50,[1]; Homo sapiens,4.88
"Cn1cc(NC(=O)c2nnc(NC3CCCC3)c3cc(Cl)c(Cl)cc23)cn1 [Example 54, 6,7-dichloro-4-(cyclopentylamino)-N-(1-methyl-1H-pyrazol-4-yl)phthalazine-1-carboxamide]",pIC50,SUV420H1 enzyme,6.83
same,pEC50,[1]; Homo sapiens,< 4.70
"CN(C)c1ccc(-c2nnc(NC3CCCC3)c3cc(Cl)c(Cl)cc23)cn1 [Example 20, 6,7-dichloro-N-cyclopentyl-4-[6-(dimethylamino)pyridin-3-yl]phthalazin-1-amine]",pIC50,SUV420H1 enzyme,6.38
same,pEC50,[1]; Homo sapiens,5.02
"NC1CCN(c2cc(-c3nnc(NC4CCCC4)c4cc(Cl)c(Cl)cc34)ccn2)C1 (centres unmarked) [Example 40, 4-[2-(3-aminopyrrolidin-1-yl)pyridin-4-yl]-6,7-dichloro-N-cyclopentylphthalazin-1-amine]",pIC50,SUV420H1 enzyme,6.64
same,pEC50,[1]; Homo sapiens,6.27
"CN(CCO)C(=O)Cn1cc(-c2nnc(NC3CCCC3)c3cc(Cl)c(Cl)cc23)cn1 [Example 57, 2-{4-[6,7-dichloro-4-(cyclopentylamino)phthalazin-1-yl]-1H-pyrazol-1-yl}-N-(2-hydroxyethyl)-N-methylacetamide]",pIC50,SUV420H1 enzyme,6.69
same,pEC50,[1]; Homo sapiens,4.97
"O=C(NCCO)c1nnc(NC2CCCC2)c2cc(Cl)c(Cl)cc12 [Example 66, 6,7-dichloro-4-(cyclopentylamino)-N-(2-hydroxyethyl)phthalazine-1-carboxamide]",pIC50,SUV420H1 enzyme,6.85
same,pEC50,[1]; Homo sapiens,5.60
"O=C(C1CC1)N1CC=C(c2nnc(NC3CCCC3)c3cc(Cl)c(Cl)cc23)CC1 [Example 70, cyclopropyl {4-[6,7-dichloro-4-(cyclopentylamino)phthalazin-1-yl]-3,6-dihydropyridin-1(2H)-yl}methanone]",pEC50,[1]; Homo sapiens,4.81
"Clc1cc2c(NC3CCCC3)nnc(N3CCCCC3)c2cc1Cl [Example 8, 6,7-dichloro-N-cyclopentyl-4-(piperidin-1-yl)phthalazin-1-amine]",pIC50,SUV420H1 enzyme,7.06
same,pEC50,[1]; Homo sapiens,5.53
"OC1CCN(c2cc(-c3nnc(NC4CCCC4)c4cc(Cl)c(Cl)cc34)ccn2)CC1 [Example 29, 1-{4-[6,7-dichloro-4-(cyclopentylamino)phthalazin-1-yl]pyridin-2-yl}piperidin-4-ol]",pIC50,SUV420H1 enzyme,6.33
same,pEC50,[1]; Homo sapiens,5.51
"CN(CCO)c1ccc(-c2nnc(NC3CCCC3)c3cc(Cl)c(Cl)cc23)cn1 [Example 26, 2-{[5-[6,7-dichloro-4-(cyclopentylamino)phthalazin-1-yl]pyridin-2-yl}(methyl)amino]ethanol]",pIC50,SUV420H1 enzyme,6.41
same,pEC50,[1]; Homo sapiens,5.35
"Clc1cc2c(NC3CCCC3)nnc(-c3ccsc3)c2cc1Cl [Example 7, 6,7-dichloro-N-cyclopentyl-4-(thiophen-3-yl)phthalazin-1-amine]",pIC50,SUV420H1 enzyme,7.12
same,pEC50,[1]; Homo sapiens,5.82
"CN(CCO)C(=O)c1nnc(NC2CCCC2)c2cc(Cl)c(Cl)cc12 [Example 46, 6,7-dichloro-4-(cyclopentylamino)-N-(2-hydroxyethyl)-N-methylphthalazine-1-carboxamide]",pIC50,SUV420H1 enzyme,5.26
"Clc1cc2c(NC3CCCC3)nnc(-c3ccc(N4CCCC4)nc3)c2cc1Cl [Example 31, 6,7-dichloro-N-cyclopentyl-4-[6-(pyrrolidin-1-yl)pyridin-3-yl]phthalazin-1-amine]",pIC50,SUV420H1 enzyme,5.56
"CC(C)(C)OC(=O)N1CC=C(c2nnc(NC3CCCC3)c3cc(Cl)c(Cl)cc23)CC1 [Example 23, tert-butyl 4-[6,7-dichloro-4-(cyclopentylamino)phthalazin-1-yl]-3,6-dihydropyridine-1(2H)-carboxylate]",pIC50,SUV420H1 enzyme,5.82
"O=C(Cn1cc(-c2nnc(NC3CCCC3)c3cc(Cl)c(Cl)cc23)cn1)N1CCS(=O)(=O)CC1 [Example 63, 2-{4-[6,7-dichloro-4-(cyclopentylamino)phthalazin-1-yl]-1H-pyrazol-1-yl}-1-(1,1-dioxidothiomorpholin-4-yl)ethanone]",pIC50,SUV420H1 enzyme,6.68
"O=C(c1nnc(NC2CCCC2)c2cc(Cl)c(Cl)cc12)N1CCC(O)C1 (centres unmarked) [Example 48, [6,7-dichloro-4-(cyclopentylamino)phthalazin-1-yl](3-hydroxypyrrolidin-1-yl)methanone]",pIC50,SUV420H1 enzyme,5.38
"6,7-dichloro-4-(cyclopentylamino)phthalazine-1-carboxylic acid [Example 38]",pIC50,SUV420H1 enzyme,5.06
"O=C(c1nnc(NC2CCCC2)c2cc(Cl)c(Cl)cc12)N1CCCC1 [Example 47, [6,7-dichloro-4-(cyclopentylamino)phthalazin-1-yl](pyrrolidin-1-yl)methanone]",pIC50,SUV420H1 enzyme,5.42
"CN1CCN(C(=O)c2nnc(NC3CCCC3)c3cc(Cl)c(Cl)cc23)CC1 [Example 49, [6,7-dichloro-4-(cyclopentylamino)phthalazin-1-yl](4-methylpiperazin-1-yl)methanone]",pIC50,SUV420H1 enzyme,5.22
"O=C1CCC(C(=O)N2CC=C(c3nnc(NC4CCCC4)c4cc(Cl)c(Cl)cc34)CC2)C1 (centres unmarked) [Example 81, 3-({4-[6,7-dichloro-4-(cyclopentylamino)phthalazin-1-yl]-3,6-dihydropyridin-1(2H)-yl}carbonyl)cyclopentanone]",pIC50,SUV420H1 enzyme,5.65
